From US8846671B2, “Heterocyclic alkynyl benzene compounds and medical compositions and uses thereof” (Guangzhou Institute of Biomedicine and Health, Chinese …, priority 2010, dated 2014) come the findings set out here.

Like-named read-outs stand apart in the source and are kept apart here. A value given as a limit tells only on which side of the number the result lay.

The subject of data set [1] is MOLT-4 (Human acute lymphoblastic leukemia cell line). The experiment in a line: tumor cell proliferation, MTT or CCK8 assay, 72 h incubation. It is filed as cell-based. To be noted: MOLT-4, 72 h, read-out: IC50 on tumor cell proliferation, MOLT-4. As to the method: (§1) The heterocyclic alkynyl benzene compounds at different concentrations (1×10^−10˜1×10^−5M) were incubated for 72 hours individually applied to 6 cell lines K562 (human CML cell line), MOLT-4 (human ALL cell line), U937 (human CML cell line), MEG-01 (human CML cell line), L78 (human lung cancer cell line), Ba/F3-T315I (mice Pro-B cells transformed with Bcr-AblT315I and STI57′-resistant cell line). After incubation for 72 hrs, cell proliferation was then determined by MTT assay or CCK8 assay, and 4 hr incubation is further conducted, the absorbance at 570 nm (CCK8, 450 nm, 650 nm) was measured using enzyme Microplate Reader. […] Based on the inhibition potency of the heterocyclic alkynyl benzene compounds on the cell proliferation, IC50 values were calculated and summarized in the Table 1 and Table 2 (The compounds used were synthesized by Examples 1-40, and the compounds are marked with Drug No. series in Table 1).
(In general: Tetrazolium dyes change colour on reduction, which living cells bring about.)

Data set [2] deals with K562 (human chronic myelogenous leukemia cell line). The data set is described as above. It is filed as cell-based. To be noted: K562, 72 h, read-out: IC50 on tumor cell proliferation, K562. The method, then: as §1
A further data set relates to U937 Cell line. The data set is described as above. It is filed as cell-based. To be noted: Homo sapiens, read-out: IC50 on tumor cell proliferation, U937. As to the method: as §1
Data set [3] concerns K562R cells (imatinib-resistant cell line). The data set is described as above. It is filed as cell-based. To be noted: Homo sapiens, K-562R, imatinib-resistant K562R, read-out: IC50 on tumor cell proliferation, K562R cells.
Data set [4] deals with BAF3-T315I cells (Ba/F3 cell line stably expressing BCR/ABL T315I) (Homo sapiens, UniProt P00519, T315I, cells depend on it). Described as above. It is filed as cell-based, mice. The method, then:
The heterocyclic alkynyl benzene compounds at different concentrations (1×10^−10˜1×10^−5M) were incubated for 72 hours individually applied to 6 cell lines K562 (human CML cell line), MOLT-4 (human ALL cell line), U937 (human CML cell line), MEG-01 (human CML cell line), L78 (human lung cancer cell line), Ba/F3-T315I (mice Pro-B cells transformed with Bcr-AblT315I and STI57′-resistant cell line). After incubation for 72 hrs, cell proliferation was then determined by MTT assay or CCK8 assay, and 4 hr incubation is further conducted, the absorbance at 570 nm (CCK8, 450 nm, 650 nm) was measured using enzyme Microplate Reader.

In data set [5] the test system is MEG-01 (Human megakaryoblastic leukaemia cell line). Described as above. It is filed as cell-based. To be noted: MEG-01, 72 h, read-out: IC50 on tumor cell proliferation, MEG-01. The method, then:
as §1

Data set [6] in a line: Pharmacokinetics and bioavailability in rats. It is filed as in vivo. To be noted: SD rats; corresponding pharmaceutical acceptable salt forms. As to the method:
Pharmacokinetics and bioavailability in rats. […] The blood samples were collected at the proper time points after administration, add heparin-anticoagulant, and the supernatants of the blood samples were collected (3000 rpm, 10 min) and stored at -20° C. for HPLC-MS analysis. After protein-precipitation procedure with acetonitrile, supernatants were collected after 3000 rpm, 10 min for analysis with HPLC-MS. The data were analyzed with software DAS2.0 to separately acquire the parameters of compartment models and non-compartment models. The bioavailability was calculated according to AUC data.

[7] abbreviates: U-937, 72 h, MTT or CCK8, no unit in cell.
Setting [8] is: Ba/F3 expressing BCR/ABL T315I, 72 h, Table 1, read-out: IC50 on tumor cell proliferation, BAF3-T315I cells.

On to `Cc1ccc(C(=O)Nc2ccc(CN3CCN(CCO)CC3)c(C(F)(F)F)c2)cc1C#Cc1cnc2ccnn2c1` [D942, N-(4-((4-(2-hydroxyethyl)piperazin-1-yl)methyl)-3-(trifluoromethyl)phenyl)-4-methyl-3-(2-(pyrazolo[1,5-a]pyrimidin-6-yl)ethynyl)benzamide], for which the IC50 in data set [1] (MTT or CCK8, no unit in cell) came out at 674 nM; in data set [2] (MTT or CCK8, no unit in cell), 3.54 nM; in the data set on U937 Cell line (setting [7]), 1300 nM; in data set [3], 44 nM. The GI50 in data set [4] (setting [8]) was determined as 102 nM.

As for `Cc1cn(-c2cc(NC(=O)c3ccc(C)c(C#Cc4cnc(NC(C)(C)C)nc4)c3)cc(C(F)(F)F)c2)cn1` [D806, 3-(2-(2-(tert-butylamino)pyrimidin-5-yl)ethynyl)-4-methyl-N-(3-(4-methyl-1H-imidazol-1-yl)-5-(trifluoromethyl)phenyl)benzamide], the IC50 in data set [5] was 131 nM; in data set [1] it was above 100 nM; in data set [2] it was above 100 nM; in the data set with U937 Cell line (U-937, 72 h), 147 nM. Further, the GI50 in data set [4] (read-out: IC50 on tumor cell proliferation, BAF3-T315I cells, Ba/F3 expressing BCR/ABL T315I, 72 h, Table 1) came out at 1890 nM.

With `Cc1ccc(C(=O)Nc2ccc(CN3CC[C@@H](N(C)C)C3)c(C(F)(F)F)c2)cc1C#Cc1cnc2ccnn2c1` [D943], the IC50 in data set [1] (MTT or CCK8, no unit in cell) amounted to 1630 nM; in data set [2] (MTT or CCK8, no unit in cell), 8.3 nM; with U937 Cell line (setting [7]), 2120 nM; in data set [3] it was 320 nM. Besides, the GI50 in data set [4] (setting [8]) turned out to be 618 nM.

As for `Cc1cn(-c2cccc(NC(=O)c3ccc(C)c(C#Cc4cnc5[nH]ncc5c4)c3)c2)cn1` [D967, 3-(2-(1H-pyrazolo[3,4-b]pyridin-5-yl)ethynyl)-4-methyl-N-(3-(4-methyl-1H-imidazol-1-yl)phenyl)benzamide], the IC50 was determined as 0.314 nM in data set [2] (MTT or CCK8, no unit in cell); 5830 nM with U937 Cell line (setting [7]); 207 nM in data set [3]. Moreover, the GI50 in data set [4] (setting [8]) came to 798 nM.

Consider `Cc1cn(-c2cc(NC(=O)c3ccc(C)c(C#Cc4cnc5[nH]ncc5c4)c3)cc(C(C)(C)C)c2)cn1` [D968, 3-(2-(1H-pyrazolo[3,4-b]pyridin-5-yl)ethynyl)-N-(3-tert-butyl-5-(4-methyl-1H-imidazol-1-yl)phenyl)-4-methylbenzamide], for which the IC50 in data set [2] (MTT or CCK8, no unit in cell) was 0.701 nM; with U937 Cell line (setting [7]), above 1000 nM; in data set [3], 32 nM. The GI50 in data set [4] (setting [8]) is 6.36 nM.

As for `Cc1ccc(C(=O)Nc2ccc(CN3CC[C@H](N(C)C)C3)c(C(F)(F)F)c2)cc1C#Cc1cnc2ccnn2c1` [D940, (S)—N-(4-((3-(dimethylamino)pyrrolidin-1-yl)methyl)-3-(trifluoromethyl)phenyl)-4-methyl-3-(2-(pyrazolo[1,5-a]pyrimidin-6-yl)ethynyl)benzamide], the IC50 in data set [1] (MTT or CCK8, no unit in cell) was found to be 955 nM; in data set [2] (MTT or CCK8, no unit in cell) it was 65.7 nM; in the data set with U937 Cell line (setting [7]), 715 nM; in data set [3], 32 nM. Moreover, in data set [4] (setting [8]), the GI50 was 245 nM.

`Cc1ccc(C(=O)Nc2ccc(CN3CC[C@H](N(C)C)C3)c(C(F)(F)F)c2)cc1C#Cc1cnc2[nH]ncc2c1` [D966, (S)-3-(2-(1H-pyrazolo[3,4-b]pyridin-5-yl)ethynyl)-N-(4-((3-(dimethylamino)pyrrolidin-1-yl)methyl)-3-(trifluoromethyl)phenyl)-4-methylbenzamide]: the IC50 in data set [2] (MTT or CCK8, no unit in cell) was determined as 0.324 nM; with U937 Cell line (setting [7]) it was 18.5 nM. The GI50 in data set [4] (setting [8]) amounted to 13.8 nM.

In the case of `Cc1ccc(C(=O)Nc2ccc(CN3CCN(C)CC3)c(C(F)(F)F)c2)cc1C#Cc1cnc2ccnn2c1` [D856, 4-methyl-N-(4-((4-methylpiperazin-1-yl)methyl)-3-(trifluoromethyl)phenyl)-3-(2-(pyrazolo[1,5-a]pyrimidin-6-yl)ethynyl)benzamide], the IC50 in data set [1] (MTT or CCK8, no unit in cell) came out at 499 nM; in data set [2] (MTT or CCK8, no unit in cell), 2.24 nM; in the data set on U937 Cell line (setting [7]) it was 2000 nM; in data set [3], 67 nM. Also, the GI50 in data set [4] (setting [8]) was determined as 10.8 nM. For the same compound, in data set [6], the “pharmacokinetics parameters, overall judgement” value is listed as “adequate pharmacokinetics parameters”.

`Cc1ccc(C(=O)Nc2cc(-n3ccnc3)cc(C(F)(F)F)c2)cc1C#Cc1cnc(NC2CC2)nc1` [D729, N-(3-(1H-imidazol-1-yl)-5-(trifluoromethyl)phenyl)-3-(2-(2-(cyclopropylamino)pyrimidin-5-yl)ethynyl)-4-methylbenzamide]: the IC50 in data set [5] (MTT or CCK8, no unit in cell) was 6580 nM; in data set [1] (MTT or CCK8, no unit in cell), 5750 nM; in data set [2] (MTT or CCK8, nM) it was 2.09 nM; in data set [3] it was 72.7 nM. The GI50 in data set [4] (Ba/F3 carrying T315I Bcr-Abl, STI571-resistant, Table 2, read-out: IC50 on the cell proliferation of Ba/F3 (T315I)) was below 100 nM; in data set [4] (setting [8]), 49.7 nM.

Consider `Cc1cn(-c2cc(NC(=O)c3ccc(C)c(C#Cc4cnc5ccnn5c4)c3)cc(C(F)(F)F)c2)cn1` [D822, 4-methyl-N-(3-(4-methyl-1H-imidazol-1-yl)-5-(trifluoromethyl)phenyl)-3-(2-(pyrazolo[1,5-a]pyrimidin-6-yl)ethynyl)benzamide], for which the IC50 in data set [1] (MTT or CCK8, nM) is above 100 nM; in data set [2] (MTT or CCK8, nM) it was 4.34 nM; in data set [3] it was 580 nM. Further, the GI50 in data set [4] (setting [8]) is 1100 nM. Also, the “pharmacokinetics parameters, overall judgement” value in data set [6] is “adequate pharmacokinetics parameters”.

Turning to `Cc1cn(-c2cc(F)cc(NC(=O)c3ccc(C)c(C#Cc4cnc5[nH]ncc5c4)c3)c2)cn1` [D963, 3-(2-(1H-pyrazolo[3,4-b]pyridin-5-yl)ethynyl)-N-(3-fluoro-5-(4-methyl-1H-imidazol-1-yl)phenyl)-4-methylbenzamide], the IC50 in data set [2] (MTT or CCK8, no unit in cell) was 0.997 nM; with U937 Cell line (setting [7]), above 1000 nM; in data set [3], 75.1 nM. For the same compound, the GI50 in data set [4] (setting [8]) stood at 243 nM.

`Cc1ccc(C(=O)Nc2ccc(CN3CC[C@@H](N(C)C)C3)c(C(F)(F)F)c2)cc1C#Cc1cnc2[nH]ncc2c1` [D965, (R)-3-(2-(1H-pyrazolo[3,4-b]pyridin-5-yl)ethynyl)-N-(4-((3-(dimethylamino)pyrrolidin-1-yl)methyl)-3-(trifluoromethyl)phenyl)-4-methylbenzamide]: the IC50 in data set [2] (MTT or CCK8, no unit in cell) is 0.588 nM; in the data set on U937 Cell line (setting [7]), 817 nM; in data set [3] it was 5.7 nM. Also, the GI50 in data set [4] (setting [8]) was found to be 6.87 nM.

Consider `Cc1cn(-c2cc(Cl)cc(NC(=O)c3ccc(C)c(C#Cc4cnc5[nH]ncc5c4)c3)c2)cn1` [D964, 3-(2-(1H-pyrazolo[3,4-b]pyridin-5-yl)ethynyl)-N-(3-chloro-5-(4-methyl-1H-imidazol-1-yl)phenyl)-4-methylbenzamide], for which the IC50 is 0.938 nM in data set [2] (MTT or CCK8, no unit in cell); above 1000 nM with U937 Cell line (setting [7]); 32 nM in data set [3]. Further, in data set [4] (setting [8]), the GI50 turned out to be 24.2 nM.

As for `Cc1cn(-c2cc(NC(=O)c3ccc(C)c(C#Cc4cnc5ccnn5c4)c3)cc(C(C)(C)C)c2)cn1` [D941, N-(3-tert-butyl-5-(4-methyl-1H-imidazol-1-yl)phenyl)-4-methyl-3-(2-(pyrazolo[1,5-a]pyrimidin-6-yl)ethynyl)benzamide], the IC50 in data set [1] (MTT or CCK8, no unit in cell) is 340 nM; in data set [2] (MTT or CCK8, no unit in cell), 2.34 nM; with U937 Cell line (setting [7]), 696 nM; in data set [3], 410 nM. Moreover, the GI50 in data set [4] (setting [8]) turned out to be 102 nM.

Take `Cc1ccc(C(=O)Nc2ccc(CN3CCOCC3)c(C(F)(F)F)c2)cc1C#Cc1cnc2ccnn2c1` [D931, 4-methyl-N-(4-(morpholinomethyl)-3-(trifluoromethyl)phenyl)-3-(2-(pyrazolo[1,5-a]pyrimidin-6-yl)ethynyl)benzamide]: the IC50 in data set [1] (MTT or CCK8, no unit in cell) was 7430 nM; in data set [2] (MTT or CCK8, no unit in cell), above 10000 nM; with U937 Cell line (setting [7]) it was 4600 nM; in data set [3] it was 510 nM. In addition, the GI50 in data set [4] (setting [8]) worked out at 2750 nM.
